The values that follow come from PubChem BioAssay AID977607 (Broad Institute, 2014).

The source made the active and inactive calls.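 The calls were made as follows: active = curve reaches 40% activation over neutral controls at an AC40 no higher than the top valid tested concentration; inconclusive = no clear call, values can overlap the other calls; inactive = signal moving opposite to the expected increase, and the rest.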

The assay has as its system INS-1E GLuc insulin secretion reporter, luminescence, 2-3 h. Put plainly: GLuc-reported insulin release enhancers, glucose-stimulated beta cells – cell-based, INS-1E, Gaussia luciferase, luminescence, cherry-pick, set 2, dose response (AID 977607).
As to `O=C(CCN1CCOCC1)c1ccc2c(c1)OCCO2`, the AC40 is 14.5 µM.
The value for `CCCNC(=O)Cn1sc2nc(C)cc(C)c2c1=O` was 6.91 µM.
With `COc1ccc(-c2ccc(-c3noc(-c4ccco4)n3)c(OC)n2)cc1`, the AC40 is 7.71 µM.
The value for `CNc1nc(Nc2ccccc2)nc(OCC(F)(F)F)n1` was 0.606 µM; that for `OC[C@@H]1[C@@H](c2ccc(C#CC3CCCC3)cc2)[C@@H]2CN(CCC(F)(F)F)CCCCN12` was 6.02 µM; that for `COc1ccc(C)c2sc(N(CCCN(C)C)C(=O)c3ccc(S(=O)(=O)N4CCc5ccccc5C4)cc3)nc12` was 3.95 µM.
The value for `COc1cc2cnc(-c3cccnc3)cc2cc1OC` was 6.19 µM; that for `Cc1c(C(=O)OCC(=O)N2CC(=O)Nc3ccccc32)oc2ccc(Br)cc12` was 4.76 µM; that for `Cc1cccc(OCC(=O)Nc2ccc(NC(=O)c3ccco3)cc2)c1` was 17.8 µM.
To `Cn1c(=O)c(C(=O)NNC(=O)c2cccc(Cl)c2)c(O)c2ccccc21` belongs 7.02 µM; to `COCCNc1nc(Oc2cncc(Cl)c2)c2sccc2n1`, 2.88 µM; to `O=C(Nc1nc(-c2ccc(-c3ccccc3)cc2)cs1)C1=COCCO1`, 6.8 µM.
Regarding `COC(=O)c1cnn(-c2nc(-c3ccccc3)cs2)c1N`, the AC40 is > 35 µM (inactive).
The value for `CCOC(=O)Cn1c(=NC(=O)c2nc3ccccc3s2)sc2cc(S(N)(=O)=O)ccc21` was 11.4 µM; that for `CC1CC1C(=O)Nc1cc(C(F)(F)F)ccc1N1CCOCC1` (configuration not stated) was 1.46 µM; that for `Cc1nn(-c2ccccc2)c2c1C(O)CC(C)(C)C2` (configuration not stated) was 3.51 µM.
The value for `Fc1cccc(-c2ccc(C3[C@@H]4CN(Cc5ccccc5F)C[C@H]3N4)cc2)c1` (some centres not stated) was 5.28 µM.
The value for `CCOC(=O)Nc1cccc(OCC(=O)Nc2ccc3c(c2)CCC3)c1` was 7.83 µM.
Turning to `Cc1cc(C)nc(NS(=O)(=O)c2ccc(N/C=C/C(=O)c3ccc(Cl)c(Cl)c3)cc2)n1`, the AC40 was 3.7 µM.
To `O=S(=O)(c1ccccc1F)N1C[C@@H]2N[C@H](C1)C2c1ccc(/C=C/c2ccccc2)cc1` (some centres not stated) belongs 6.46 µM; to `CCOc1ccc(Nc2oc(-c3ccc(Cl)cc3)nc2C#N)cc1`, 5.14 µM; to `O=C(Nc1ccc2ccccc2c1)c1cccc2ccccc12`, 8.55 µM.
The value for `O[C@H]1C[C@H](c2ccccc2)N(CC2CCCCC2)C[C@@H]1n1cc(C2CC2)nn1` was 11.5 µM; that for `Cc1cc(C)c2oc(C(=O)Nc3ccc(S(=O)(=O)Nc4nccc(C)n4)cc3)cc(=O)c2c1` was 8.73 µM.
The value for `NC(c1csc(NC(=O)Nc2cccc(C(F)(F)F)c2)n1)C1CCCCC1` (configuration not stated) was 6.13 µM; that for `OC(CNCCc1ccc(C(F)(F)F)cc1)COC(c1ccccc1)c1ccccc1` (configuration not stated) was 6.21 µM.
For the compound `CN(C)CCOc1ccc(-c2c(-c3ccccc3)sc3ccccc23)cc1`, the AC40 was 2.75 µM.
To `COc1ccc(Br)cc1C(=O)Nc1cccc(C)c1` belongs 11.6 µM; to `CN(C)CCOc1ccc(-c2c(-c3ccsc3)sc3ccccc23)cc1`, 10.9 µM; to `Cc1ccc(S(=O)(=O)N2C[C@@H]3N[C@H](C2)C3c2ccc(/C=C/c3ccccc3)cc2)cc1` (some centres not stated), 7.9 µM.
To `O=C1c2cccnc2C(Nc2cccc(F)c2)N1Cc1ccco1` (configuration not stated) belongs 28.5 µM; to `Cc1ccc(OCC(=O)NC(=S)Nc2cccc(NC(=O)c3ccccc3)c2)cc1`, 11.3 µM.
To `CNc1nc(Cl)nc2c1ncn2-c1ccccc1` belongs 15.6 µM; to `Cc1ccc(C)c(C(=O)Nc2nc3ccccc3[nH]2)c1`, 8.78 µM.
Turning to `O=c1[nH]nc(-c2ccccc2)c2ccccc12`, the AC40 is 22.5 µM.
With `CCOc1ncccc1C(=O)Nc1ncc(C)s1`, the AC40 is > 35 µM (inactive).
For the compound `Cc1ccc(C)c(OCC(=O)Nc2nonc2NC(=O)COc2cc(C)ccc2C)c1`, the AC40 is 5.44 µM.
The value for `C/C(=N/NC(=O)c1ccc(Br)s1)c1ccncc1` was > 35 µM (inactive); that for `COc1ccc(-n2sc3ccccc3c2=O)cc1` was 3.14 µM; that for `CCNC(=O)NC(=O)C(C)OC(=O)c1oc2ccccc2c1CSC1CCCCC1` (configuration not stated) was 5.51 µM.
The value for `O=c1c2ccccc2nc(-c2ccco2)n1/N=C/c1ccccc1O` was 14.7 µM.
The value for `C/C=C/c1ccc(C2[C@H]3CNC[C@@H]2N3Cc2cc(-c3ccccc3)on2)cc1` (some centres not stated) was 9.74 µM; that for `CCOC(=O)Cc1nn(Cc2ccccc2)c(=O)c2ccccc12` was 1.61 µM.
On to `CCCCc1c(-c2ccccc2F)ncn1CCc1ccccc1OC`, for which the AC40 was 7.64 µM.
To `CCCCc1c(-c2ccccc2OC)ncn1C(C)c1ccc(Cl)cc1` (configuration not stated) belongs 12.6 µM; to `CC(C)Nc1nc(NC(C)(C)C)nc(Oc2ccc(=O)n(C)n2)n1`, 29.2 µM; to `N#Cc1cccc(-c2ccc(C3[C@H]4CNC[C@@H]3N4Cc3cc(-c4ccccc4)on3)cc2)c1` (some centres not stated), 12 µM.
For `O=C1Nc2cnc(Cl)nc2Nc2ccccc21`, the AC40 was > 35 µM (inactive).
On to `CCCn1c2ccccc2c2cn[nH]c(=O)c21`, for which the AC40 was 16.4 µM.
To `COc1ccc(CCN(C)C(=O)c2oc3ccccc3c2C)cc1OC` belongs 7.06 µM.
To `COc1ccc(NC(=O)c2sc3nc(N4CCOCC4)c4c(c3c2N)CC(C)(C)OC4)c(OC)c1` belongs 6.55 µM.
With `O=C1N/C(=N\N=C\c2cccs2)SC1Cc1cccc(Cl)c1` (configuration not stated), the AC40 was 9.04 µM.
To `C=CCn1c(=NC(=O)c2cc(Cl)sc2Cl)sc2cc(S(N)(=O)=O)ccc21` belongs 5.55 µM.
Turning to `CC(C)(C)c1ccc(OCC(=O)Nc2ccc(-c3nc4cccnc4o3)cc2)cc1`, the AC40 was 9.2 µM.
The value for `Cc1cccc(NC(=O)c2ccc(OCc3c(C)noc3C)cc2)c1C` was 1.54 µM; that for `CCOC(=O)c1cc2sccc2n1CC(=O)N1c2ccccc2CC1C` (configuration not stated) was 3.59 µM; that for `CCCCc1c(-c2ccc(F)cc2F)ncn1CCc1ccccc1OC` was 8.96 µM.
The value for `COc1ccccc1CCn1cnc(-c2cccc(F)c2)c1C(C)C` was 14 µM; that for `Cc1nn(Cc2ccc(Cl)cc2Cl)c(Cl)c1C(=O)Nc1ccc(OC(F)F)cc1` was 6.5 µM; that for `COc1ccc(C#Cc2ccc([C@@H]3[C@@H](CO)N4CCCCN(Cc5ccccc5F)C[C@@H]34)cc2)cc1` was 14.3 µM.
`CCCCCCN1C[C@H](n2cc(COC(=O)c3ccccc3)nn2)[C@@H](O)C[C@@H]1c1ccc(C)cc1`: the AC40 is 6.42 µM.
The value for `COc1ccc(NC(=O)Cn2cnc3c(cnn3-c3ccc(C)c(C)c3)c2=O)c(OC)c1` was 5.6 µM; that for `COc1ccc(NC(=O)c2csc(C)c2)cc1OC` was > 35 µM (inactive); that for `OC(CNCCc1ccc(C(F)(F)F)cc1)COc1cccc2ccccc12` (configuration not stated) was 4.54 µM.
In the case of `Cc1cc(C)nc(Nc2n[nH]c(COc3ccc4ccccc4c3)n2)n1`, the AC40 is 7.71 µM.
Regarding `COc1ccc(-c2ccc(SCc3ccccn3)nn2)cc1OC`, the AC40 was 6.41 µM.
To `Cc1cc(OCCCN2CCC(C(O)(c3ccccc3)c3ccccc3)CC2)ccc1Br` belongs 4.77 µM; to `COc1cc(/C=N/NC(=O)Nc2ccccc2)ccc1OCCOc1ccccc1C`, 2.29 µM; to `NC[C@H](Cc1ccccc1)NCCc1cc(C(F)(F)F)cc(C(F)(F)F)c1`, 14.9 µM.
The value for `Cc1cccc(Cn2ccc(-c3ccc(Cl)cc3)c(C#N)c2=O)c1` was 7 µM; that for `COc1ccc(S(=O)(=O)N2CCc3ccccc32)cc1C(=O)Nc1ccc(C(N)=O)cc1` was 16.3 µM.
The value for `O=c1c2ccccc2sn1-c1ccc(F)cc1` was 7.1 µM.
Take `CCOc1ccc2nc(NCCNC(=O)Nc3ccccc3)c(C#N)cc2c1`: the AC40 was 5.63 µM.
The value for `CCCCCCn1c(-c2cccs2)n[nH]c1=S` was > 35 µM (inactive).
To `CC(C)CCn1c(N2CCCC2)nc2c1c(=O)[nH]c(=O)n2C` belongs 31.7 µM; to `CN(C)Cc1ccccc1Sc1ccc2c(c1)CCCC2`, 16.6 µM.
To `N#Cc1c(-c2ccncc2)cc(-c2ccc(F)cc2)nc1N` belongs 2.96 µM; to `NS(=O)(=O)c1ccc(CCNc2nc3c(-c4cccc(F)c4)nnn3c3ccccc23)cc1`, 15.9 µM; to `CCOC(=O)c1cnc2ccc(Cl)cc2c1Nc1ccc(S(=O)(=O)Nc2ncccn2)cc1`, 3.45 µM.
In the case of `Cc1nc(N)c(C#N)c(-c2cccnc2)c1C`, the AC40 is 14.2 µM.
To `CC1(C(=O)NS(=O)(=O)c2ccc(Cl)s2)CCN1C(=O)C1(c2ccccc2)CCCC1` (configuration not stated) belongs 10.7 µM; to `NC1=NC[C@H](CC2CCCCC2)N1CCc1cc(C(F)(F)F)cc(C(F)(F)F)c1`, 16.6 µM; to `CCOC(=O)[C@]12Cc3c(cc(OC)c(OC)c3OC)[C@H]1N(C1CCCCC1)C(=O)c1cc(OC)ccc12`, 15.5 µM.
The value for `CC(C)(C)c1ccccc1OCC(O)CN1CCN(c2ccccn2)CC1` (configuration not stated) was 13.7 µM; that for `COc1cc(CN2C[C@@H]3N[C@H](C2)C3c2ccc(/C=C/c3ccccc3)cc2)cc(OC)c1` (some centres not stated) was 5.5 µM.
The value for `OC(CNCCC1C=Nc2ccccc21)Cn1c2ccc(Cl)cc2c2cc(Cl)ccc21` (configuration not stated) was 4.84 µM; that for `COc1cc(/C=N/NC(=O)C(C)n2nnc3ccccc32)ccc1O` (configuration not stated) was 6.55 µM; that for `O=C(NCc1ccccn1)c1coc(=O)c(Br)c1` was 2.01 µM.
For the compound `CCCc1cc(-c2nc(-c3ccc(C)cc3)cs2)ccn1`, the AC40 is 10.2 µM.
With `CCCNC(=O)c1nnsc1S(=O)(=O)c1ccc(Cl)cc1`, the AC40 was 1.63 µM.
To `Cc1cccc(S(=O)(=O)N2C[C@@H]3N[C@H](C2)C3c2ccc(-c3ccccc3F)cc2)c1` (some centres not stated) belongs 5.72 µM; to `COc1cc2nc(N3CCN(c4cc(C)ccc4C)CC3)nc(N)c2cc1OC`, 8.44 µM.
The value for `CC(C)n1nc(C(=O)Nc2ccccc2N2CCOCC2)c2ccccc2c1=O` was 8.07 µM; that for `OC[C@@H]1[C@@H](c2ccc(C#CC3CCCC3)cc2)[C@H]2CN(CCC(F)(F)F)CCCCN12` was 8.56 µM; that for `O=C(c1cccs1)c1coc2ccc(O)c(CN3CCOCC3)c12` was > 35 µM (inactive).
The value for `COc1ccc(CCNC(=O)CCc2nc3ccccc3[nH]2)cc1OC` was 0.311 µM; that for `Fc1ccc(-c2cc(C(F)(F)F)nc(-n3cncn3)n2)cc1` was 0.52 µM.
